From patent US20120022054A1, “NOVEL SUBSTITUTED ARYL DERIVATIVES, THEIR PROCESS OF PREPARATION AND THEIR THERAPEUTICAL USES AS ANTI-HIV AGENTS” (priority 2008, published 2012) come the findings set out here.

Where two headings read alike, the source gives them in different places.

The subject of one assay is NL4-3 strain of HIV-1. As to the kind of experiment: Multiple cycle infection assay of CAp24 antigen production. The class given is cell-based. Conditions: Human immunodeficiency virus 1, NL43, SUP-T1, 96 h, multiple cycle infection with NL4-3 virus, SupT1, MT4 or PBMC, MOI 0.01, day 4 and day −6 post-infection, read-out: EC50 for antiviral activity (50% inhibition of CA p24 production).

Assay [1] concerns Env-deleted NL4-3 vector virus pseudotyped with the VSV g envelope. As to the kind of experiment: microbe, parasite or virus in culture. Type of assay: cell-based, HIV-1. The following applies: Vesicular stomatitis virus, NL43, SUP-T1, 48 h, read-out: EC50 for antiviral activity (50% inhibition of luciferase activity).

For the molecule `CN(C(=O)CCCn1ccc2cc(F)ccc21)c1cccc2ccccc12` [Example 123, 4-(5-fluoro-1H-indol-1-yl)-N-methyl-N-1-naphthylbutanamide], the values for the half-maximal effective concentration (EC50) in the assay on NL4-3 strain of HIV-1 (threshold below 500 nM) and with NL4-3 strain of HIV-1 (threshold below 5 μM) were less than 0.5 µM and less than 5 µM, respectively.
For the molecule `CC(C)Oc1ccccc1CN(C)C(=O)CCCSc1ccc(F)cc1` [Example 50, 4-[(4-Fluorophenyl)thio]-N-(2-isopropoxybenzyl)-N-methylbutanamide], the EC50 (in the assay with NL4-3 strain of HIV-1 (threshold below 5 μM); in assay [1]) was less than 5 µM in each case.
As to `CN(Cc1ccccc1N1CCNCC1)C(=O)CCCSc1ccc(O)cc1` [Example 162, 4-[(4-Hydroxyphenyl)thio]-N-methyl-N-(2-piperazin-1-ylbenzyl)butanamide], the concentration giving a half-maximal response (EC50) with NL4-3 strain of HIV-1 (threshold below 500 nM) is less than 0.5 µM; in the assay on NL4-3 strain of HIV-1 (threshold below 5 μM) it was less than 5 µM.
As for `COc1ccc([S+]([O-])CCCC(=O)N(C)Cc2cc(F)ccc2OC)cc1` (centres unmarked) [Example 104, N-(5-fluoro-2-methoxybenzyl)-4-[(4-methoxyphenyl)sulfinyl]-N-methylbutanamide], the EC50 in the assay on NL4-3 strain of HIV-1 (threshold below 500 nM) was less than 0.5 µM; in the assay on NL4-3 strain of HIV-1 (threshold below 5 μM) it was less than 5 µM.
Turning to `COc1cccc(CN(C)C(=O)CCCSc2ccc(O)cc2)c1OC` [Example 29, N-(2,3-dimethoxybenzyl)-4-[(4-hydroxyphenyl)thio]-N-methylbutanamide], the EC50 (in the assay on NL4-3 strain of HIV-1 (threshold below 5 μM); in assay [1]) was less than 5 µM throughout.
For the molecule `COc1ccc(-c2cnn(CCCC(=O)N(C)Cc3cc(F)ccc3OC)c2)cc1` [Example 174, N-(5-Fluoro-2-methoxybenzyl)-4-[4-(4-methoxyphenyl)pyrazol-1-yl]-N-methylbutanamide], the EC50 with NL4-3 strain of HIV-1 (threshold below 500 nM) was less than 0.5 µM; with NL4-3 strain of HIV-1 (threshold below 5 μM) it was less than 5 µM.
Turning to `CCOC(=O)c1cc(F)ccc1[S+]([O-])CCCC(=O)N1CCc2ccc(OC)cc21` (centres unmarked) [Example 191, Ethyl 5-fluoro-2-((4-(6-methoxy-2,3-dihydro-1H-indol-1-yl)-4-oxobutyl)sulfinyl)benzoate], the EC50 with NL4-3 strain of HIV-1 (threshold below 5 μM) is less than 5 µM.
For the molecule `COc1ccc([S+]([O-])CCCC(=O)N(C)Cc2cc(F)ccc2OC(C)C)cc1` (centres unmarked) [Example 118, N-(5-fluoro-2-isopropoxybenzyl)-4-[(4-methoxyphenyl)sulfinyl]-N-methylbutanamide], the results for the concentration for a half-maximal effect (EC50) in the assay with NL4-3 strain of HIV-1 (threshold below 500 nM) and with NL4-3 strain of HIV-1 (threshold below 5 μM) were less than 0.5 µM and less than 5 µM, respectively.
For `CN(C(=O)CCCSc1ccc(F)cc1)c1cccc2ccccc12` [Example 169, 4-[(4-Fluorophenyl)thio]-N-methyl-N-1-naphthylbutanamide], in that order: less than 0.5 µM and less than 5 µM.
For `CN(C(=O)CCC[S+]([O-])c1ccc(F)cc1)c1nccc2ccccc12` (centres unmarked) [Example 129, 4-[(4-fluorophenyl)sulfinyl]-N-isoquinolin-1-yl-N-methylbutanamide], in that order: less than 0.5 µM and less than 5 µM.
For `COc1ccc(Cl)cc1CN(C)C(=O)CCCn1cc(-c2ccc(F)cc2)cn1` [Example 173, N-(5-Chloro-2-methoxybenzyl)-4-[4-(4-fluorophenyl)pyrazol-1-yl]-N-methylbutanamide], the EC50 in the assay with NL4-3 strain of HIV-1 (threshold below 500 nM) is less than 0.5 µM; with NL4-3 strain of HIV-1 (threshold below 5 μM), less than 5 µM.
For `COc1ccc(F)cc1CN(C)C(=O)CCCn1cc(-c2ccc(O)cc2)cn1` [Example 176, N-(5-Fluoro-2-methoxybenzyl)-4-[4-(4-hydroxyphenyl)pyrazol-1-yl]-N-methylbutanamide], in that order: less than 0.5 µM and less than 5 µM.
For `COc1ccc([S+]([O-])CCCC(=O)N(C)Cc2cc(Cl)ccc2OC)cc1` (centres unmarked) [Example 116, N-(5-chloro-2-methoxybenzyl)-4-[(4-methoxyphenyl)sulfinyl]-N-methylbutanamide], in that order: less than 0.5 µM and less than 5 µM.
For the molecule `COc1ccc(F)cc1CN(C)C(=O)CCCSc1ccc(O)cc1` [Example 71, N-(5-Fluoro-2-methoxybenzyl)-4-[(4-hydroxyphenyl)thio]-N-methylbutanamide], the EC50 in the assay on NL4-3 strain of HIV-1 (threshold below 500 nM) was less than 0.5 µM; in the assay on NL4-3 strain of HIV-1 (threshold below 5 μM), less than 5 µM.
Turning to `CCOC(=O)c1cc(F)ccc1SCCCC(=O)N(C)c1cccc(OC)c1` [Example 195, Ethyl 5-fluoro-2-({4-[(3-methoxyphenyl)(methyl)amino]-4-oxobutyl}thio)benzoate], the EC50 in assay [1] was less than 5 µM.
On to `CC(C)Oc1ccc(F)cc1CN(C)C(=O)CCCSc1ccc(F)cc1` [Example 85, N-(5-Fluoro-2-isopropoxybenzyl)-4-[(4-fluorophenyl)thio]-N-methylbutanamide], for which the concentration for a half-maximal effect (EC50) with NL4-3 strain of HIV-1 (threshold below 500 nM) is less than 0.5 µM; with NL4-3 strain of HIV-1 (threshold below 5 μM) it was less than 5 µM.
For `COc1ccc(F)cc1CN(C)C(=O)CCCSc1ccc(F)cc1` [Example 84, N-(5-Fluoro-2-methoxybenzyl)-4-[(4-fluorophenyl)thio]-N-methylbutanamide], in that order: less than 0.5 µM and less than 5 µM.
Turning to `COc1ccc(F)cc1CN(C)C(=O)CCC[S+]([O-])c1ccc(O)cc1` (centres unmarked) [Example 103, N-(5-fluoro-2-methoxybenzyl)-4-[(4-hydroxyphenyl)sulfinyl]-N-methylbutanamide], the figures for the EC50 in the assay on NL4-3 strain of HIV-1 (threshold below 500 nM) and with NL4-3 strain of HIV-1 (threshold below 5 μM) were less than 0.5 µM and less than 5 µM, respectively.
For `COc1ccc(F)cc1CN(C)C(=O)CCCn1cc(-c2ccc(F)cc2)cn1` [Example 170, N-(5-Fluoro-2-methoxybenzyl)-4-[4-(4-fluorophenyl)pyrazol-1-yl]-N-methylbutanamide], in that order: less than 0.5 µM and less than 5 µM.
For the molecule `COc1ccc(F)cc1CN(C)C(=O)CCCn1ccc2cc(Cl)ccc21` [Example 107, 4-(5-chloro-1H-indol-1-yl)-N-(5-fluoro-2-methoxybenzyl)-N-methylbutanamide], the results for the EC50 with NL4-3 strain of HIV-1 (threshold below 500 nM) and in the assay with NL4-3 strain of HIV-1 (threshold below 5 μM) were less than 0.5 µM and less than 5 µM, respectively.
For `COc1ccc(C(=O)CCCC(=O)N(C)Cc2cc(Cl)ccc2OC)cc1` [Example 125, N-(5-chloro-2-methoxybenzyl)-5-(4-methoxyphenyl)-N-methyl-5-oxopentanamide], in that order: less than 0.5 µM and less than 5 µM.
For `COc1ccc(-c2cnc(CCCC(=O)N(C)Cc3cc(F)ccc3OC)o2)cc1` [Example 180, N-(5-Fluoro-2-methoxybenzyl)-4-[5-(4-methoxyphenyl)oxazol-2-yl]-N-methylbutanamide], in that order: less than 0.5 µM and less than 5 µM.
As to `COc1ccc(Cl)cc1CN(C)C(=O)CCCSc1ccc(OC(C)C)cc1` [Example 113, N-(5-chloro-2-methoxybenzyl)-4-[(4-isopropoxyphenyl)thio]-N-methylbutanamide], the concentration giving a half-maximal response (EC50) in the assay on NL4-3 strain of HIV-1 (threshold below 500 nM) is less than 0.5 µM; in the assay with NL4-3 strain of HIV-1 (threshold below 5 μM), less than 5 µM.
In the case of `COc1ccc(F)cc1CN(C)C(=O)CCCn1cc(-c2ccc(F)cc2)c(C)n1` [Example 171, N-(5-Fluoro-2-methoxybenzyl)-4-[4-(4-fluorophenyl)-3-methylpyrazol-1-yl]-N-methylbutanamide], the figures for the concentration for a half-maximal effect (EC50) in the assay on NL4-3 strain of HIV-1 (threshold below 500 nM) and in the assay on NL4-3 strain of HIV-1 (threshold below 5 μM) were less than 0.5 µM and less than 5 µM, respectively.
For `CN(C(=O)CCCSc1ccc(F)cc1)c1nccc2ccccc12` [Example 128, 4-[(4-fluorophenyl)thio]-N-isoquinolin-1-yl-N-methylbutanamide], in that order: less than 0.5 µM and less than 5 µM.
`COc1ccc(F)cc1CN(C)C(=O)CCCn1cc(-c2ccc(C#N)cc2)cn1` [Example 177, N-(5-Fluoro-2-methoxybenzyl)-4-[4-(4-cyanophenyl)pyrazol-1-yl]-N-methylbutanamide]: the half-maximal effective concentration (EC50) in the assay with NL4-3 strain of HIV-1 (threshold below 500 nM) was less than 0.5 µM; in the assay on NL4-3 strain of HIV-1 (threshold below 5 μM), less than 5 µM.
For `COc1ccc(SCCCC(=O)N(C)c2nccc3ccccc23)cc1` [Example 132, N-isoquinolin-1-yl-4-[(4-methoxyphenyl)thio]-N-methylbutanamide], in that order: less than 0.5 µM and less than 5 µM.
For `COc1ccc(F)cc1CN(C)C(=O)CCCn1ccc2cc(F)ccc21` [Example 106, 4-(5-fluoro-1H-indol-1-yl)-N-(5-fluoro-2-methoxybenzyl)-N-methylbutanamide], in that order: less than 0.5 µM and less than 5 µM.
As to `COc1ccc(F)cc1CN(C)C(=O)CCCn1cc(-c2ccc(F)cc2C)cn1` [Example 175, N-(5-Fluoro-2-methoxybenzyl)-4-[4-(4-fluoro-2-methylphenyl)pyrazol-1-yl]-N-methylbutanamide], the EC50 was less than 0.5 µM in the assay with NL4-3 strain of HIV-1 (threshold below 500 nM) and less than 5 µM in the assay on NL4-3 strain of HIV-1 (threshold below 5 μM).
For `COc1ccc(F)cc1CN(C)C(=O)CCCSc1ccc(Br)cc1` [Example 145, 4-[(4-Bromophenyl)thio]-N-(5-fluoro-2-methoxybenzyl)-N-methylbutanamide], in that order: less than 0.5 µM and less than 5 µM.
Turning to `CN(C(=O)CCCSc1ccc(F)cc1)c1cccc2cccnc12` [Example 130, 4-[(4-fluorophenyl)thio]-N-methyl-N-quinolin-8-ylbutanamide], the EC50 in the assay with NL4-3 strain of HIV-1 (threshold below 500 nM) was less than 0.5 µM; in the assay with NL4-3 strain of HIV-1 (threshold below 5 μM), less than 5 µM.
For `COc1ccc(C)cc1CN(C)C(=O)CCCn1ccc2cc(F)ccc21` [Example 120, 4-(5-fluoro-1H-indol-1-yl)-N-(2-methoxy-5-methylbenzyl)-N-methylbutanamide], in that order: less than 0.5 µM and less than 5 µM.
`COc1ccc(Cl)cc1CN(C)C(=O)CCCSc1ccc(O)cc1` [Example 70, N-(5-Chloro-2-methoxybenzyl)-4-[(4-hydroxyphenyl)thio]-N-methylbutanamide]: the EC50 in the assay on NL4-3 strain of HIV-1 (threshold below 500 nM) was less than 0.5 µM; in the assay with NL4-3 strain of HIV-1 (threshold below 5 μM) it was less than 5 µM.
Regarding `COc1ccc(F)cc1CN(C)C(=O)CCCn1cc(-c2ccncc2)cn1` [Example 178, N-(5-Fluoro-2-methoxybenzyl)-4-(4-pyridin-4-yl-pyrazol-1-yl)-N-methylbutanamide], the results for the EC50 in the assay with NL4-3 strain of HIV-1 (threshold below 500 nM) and with NL4-3 strain of HIV-1 (threshold below 5 μM) were less than 0.5 µM and less than 5 µM, respectively.
For `COc1ccc(F)cc1CN(C)C(=O)CCCn1ccc2cc(Br)ccc21` [Example 108, 4-(5-bromo-1H-indol-1-yl)-N-(5-fluoro-2-methoxybenzyl)-N-methylbutanamide], in that order: less than 0.5 µM and less than 5 µM.
